Measurements: patent publication US20250099420A1, “SMALL MOLECULE MODULATORS OF GPR139 COMPLEX” (University of Florida Research Foundation, Incorporated, priority 2022, published 2025)
pEC50: −log10 of the molar value. Read-outs that look alike come from different tables or passages of the source.

Tests used:
parental HEK cells = experiment: HEK parental Agonist Counterscreen Assay (non-transfected cells); assay type: cell-based; conditions: for Averaged Max % Response (±St. Dev.): activity relative to known control
Source text: The high control for the agonist counterscreen was Forskolin not acetylcholine.

GPR139 = biological target: T1, GPR139 (Homo sapiens, UniProt Q6DWJ6); experiment: GPR139 Agonist titration / agonist counterscreen assay (calcium detection, HEK-GPR139 cells); assay type: cell-based; set-up: expressed in transfected cells; host or cells: HEK Aequorin cells, Maxcyte transient transfection; conditions: GPR139 Agonist Activity; for Averaged Max % Response (±St. Dev.): activity relative to known control; for pEC50: read-out: EC50
T1 sequence (Q6DWJ6 1-353): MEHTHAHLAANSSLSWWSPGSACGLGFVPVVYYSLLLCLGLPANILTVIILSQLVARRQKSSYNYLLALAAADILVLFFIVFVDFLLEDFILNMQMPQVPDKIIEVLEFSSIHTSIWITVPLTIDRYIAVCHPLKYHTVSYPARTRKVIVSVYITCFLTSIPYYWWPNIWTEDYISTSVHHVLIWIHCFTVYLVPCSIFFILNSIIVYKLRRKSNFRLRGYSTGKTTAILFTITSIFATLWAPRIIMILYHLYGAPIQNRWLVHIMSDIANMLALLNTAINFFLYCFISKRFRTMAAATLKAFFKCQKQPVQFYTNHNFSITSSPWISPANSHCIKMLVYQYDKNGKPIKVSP
Method: GPR activity was assessed using a calcium detection assay. […] Negative control samples were treated with DMSO. […] Intracellular calcium was measured using Calcium 5.

[1] = HEK Agonist Activity section of Table 4 (parental HEK counterscreen)
[2] = values printed in E-notation without unit
[3] = Homo sapiens, HEK293, HEK Agonist Activity section of Table 4 (parental HEK counterscreen)
[4] = Homo sapiens, HEK293, HEK Agonist Activity, parental non-transfected HEK cells
[5] = HEK Agonist Activity, parental non-transfected HEK cells

Structure (SMILES) | Lipophilic Efficiency (logD) (parental HEK cells; HEK Agonist Activity section) | Lipophilic Efficiency (logP) (parental HEK cells; HEK Agonist Activity section) | pEC50 (parental HEK cells; [1]) | Averaged Max % Response (±St. Dev.) (parental HEK cells; HEK Agonist Activity section) | Averaged Max % Response (±St. Dev.) (GPR139) | Lipophilic Efficiency (logD) (GPR139; based on logD) | Lipophilic Efficiency (logP) (GPR139; based on logP) | Hill Slope (GPR139; fitted dose-response curve) | Efficiency Ligand (GPR139; ligand efficiency) | pEC50 (GPR139; [2]) | pEC50 (parental HEK cells; [3]) | also measured
COc1ccc(CCNC(=O)c2ccnc(N3CCN(Cc4ccc5c(c4)OCO5)CC3)c2)cc1 [SR-01000654192] | 1.42 | 1.29 | < 4.88 | 14.64 ± 17.11% | 115.41 ± 10.16% | 3.51 | 3.38 | 0.89 | 0.28 | 6.96 |  | 
COc1ccc(CCNC(=O)c2cncc(-c3csc4ccccc34)c2)cc1 [SR-01000654639] | 0.64 | 0.64 | < 4.85 | 1.22 ± 5.69% | 99.13 ± 2.27% | 2.51 | 2.51 | 1.05 | 0.34 | 6.72 |  | 
COc1ccc(CCCC(=O)c2cccc(-c3ccc(OC)cc3)c2)cc1 [SR-01000655128] | 1.68 | 1.68 |  | 0.74 ± 3.27% | 106.36 ± 3.74% | 3.70 | 3.70 | 0.50 | 0.36 |  | < 4.85 | 
COCC(=O)Oc1c(Sc2c(F)c(F)c(F)c(F)c2F)c(C)nn1C(C)(C)C [SR-01000906953] | 1.23 | 1.23 | 5.24 | 192.43 ± 25.16% | 95.58 ± 3.98% | 3.16 | 3.16 | 1.02 | 0.36 | 7.17 |  | Hill Slope (parental HEK cells; HEK Agonist Activity section): 9.35
CCOc1ccc(C(=O)NCCn2ccc3ccccc32)cc1OCC [SR-01000907288] |  |  |  |  | 110.51 ± 12.41% | 5.58 | 5.58 |  | 0.49 |  |  | Lipophilic Efficiency (logD) (parental HEK cells; HEK Agonist Activity): 1.28; Lipophilic Efficiency (logP) (parental HEK cells; HEK Agonist Activity): 1.28; Averaged Max % Response (±St. Dev.) (parental HEK cells; HEK Agonist Activity): 14.88 ± 7.51%; pEC50 (parental HEK cells; [4]): < 4.85
COc1ccccc1OCC(=O)NCCc1ccc2c(c1)CCCN2C [SR-01000911654] |  |  |  |  | 102.69 ± 7.41% | 4.95 | 4.94 | 0.31 | 0.44 | 8.10 |  | Lipophilic Efficiency (logD) (parental HEK cells; HEK Agonist Activity): 1.69; Lipophilic Efficiency (logP) (parental HEK cells; HEK Agonist Activity): 1.69; Averaged Max % Response (±St. Dev.) (parental HEK cells; HEK Agonist Activity): −5.46 ± 4.05%; pEC50 (parental HEK cells; [4]): < 4.85
O=C(NCCS(=O)(=O)N1CCc2ccccc2C1)C(c1ccccc1)c1ccccc1 [SR-01000911742] | 1.49 | 1.49 |  | −12.80 ± 5.17% | 93.88 ± 11.00% |  |  |  |  |  | < 4.85 | Efficiency Ligand (GPR139): 0.25; Hill Slope (GPR139): 0.32; Lipophilic Efficiency (logD) (GPR139): 2.28; Lipophilic Efficiency (logP) (GPR139): 2.28; pEC50 (GPR139; HEK-GPR139 cells): 5.64
COc1ccc(NC(=O)NCC2CC(=O)N(c3ccccc3)C2)cc1 (stereo not drawn) [SR-01000912290] |  |  |  |  | 103.55 ± 8.13% | 6.11 | 6.11 | 1.13 | 0.44 | 7.84 |  | Lipophilic Efficiency (logD) (parental HEK cells; HEK Agonist Activity): 3.12; Lipophilic Efficiency (logP) (parental HEK cells; HEK Agonist Activity): 3.12; Averaged Max % Response (±St. Dev.) (parental HEK cells; HEK Agonist Activity): 20.29 ± 5.75%; pEC50 (parental HEK cells; [4]): < 4.85
Cc1ccc(SCC(=O)Nc2nnc(-c3ccc(Cl)cc3)o2)cc1 [SR-01000913573] | 0.84 | 0.84 | < 4.85 | 8.58 ± 4.44% | 186.79 ± 37.86% | 2.75 | 2.75 |  | 0.39 | < 6.76 |  | 
O=c1nc(SCc2ccccc2F)c2c([nH]1)CCC2 [SR-01000914970] | 2.03 | 2.02 | < 4.85 | −5.66 ± 4.95% | 101.00 ± 9.27% | 3.98 | 3.97 | 0.53 | 0.50 | 6.80 |  | 
COc1ccccc1-c1nnc(NC(=O)Cc2ccc(C)cc2C)o1 [SR-01000915644] | 1.25 | 1.25 |  | −2.94 ± 0.56% | 98.09 ± 3.30% | 3.69 | 3.69 | 0.31 | 0.41 | 7.29 | < 4.85 | 
Cc1cccc(COc2coc(COc3nccn3C)cc2=O)c1 [SR-01000916033] | 2.68 | 2.68 |  | 25.93 ± 6.51% | 104.22 ± 8.56% | 5.04 | 5.04 | 0.34 | 0.42 | 7.21 | < 4.85 | 
COc1ccc(CCC(=O)Nc2ccc(OC)c(N3CCCC3=O)c2)cc1 [SR-01000916271] | 2.35 | 2.35 |  | 29.38 ± 9.84% | 111.55 ± 2.57% | 4.82 | 4.82 | 0.34 | 0.38 | 7.32 | < 4.85 | 
O=C1CCCCN1c1cccc(NS(=O)(=O)c2cc(Cl)ccc2Cl)c1 [SR-01000916375] | 1.86 | 1.41 |  | −1.52 ± 2.20% | 91.29 ± 4.98% |  |  |  |  |  | < 4.85 | Efficiency Ligand (GPR139): 0.36; Hill Slope (GPR139): 0.68; Lipophilic Efficiency (logD) (GPR139): 3.43; Lipophilic Efficiency (logP) (GPR139): 2.99; pEC50 (GPR139; HEK-GPR139 cells): 6.43
COCCn1c(C)c(C(=O)NC(C)CCc2ccccc2)c2nc3ccccc3nc21 (stereo not drawn) [SR-01000918134] | 0.66 | 0.66 |  | −11.92 ± 3.45% | 116.95 ± 4.02% | 3.05 | 3.05 |  | 0.33 |  | < 4.85 | 
CCn1c(=O)c([N+](=O)[O-])c(NCCc2ccc(OC)cc2)c2ccccc21 [SR-01000918303] | 2.37 | 2.37 | < 4.85 | −6.52 ± 9.86% | 84.68 ± 8.82% | 4.29 | 4.29 | 0.73 | 0.35 | 6.78 |  | 
COc1ccc(C2(C)NC(=O)N(CC(=O)Nc3cc(C)ccc3C)C2=O)cc1 (stereo not drawn) [SR-01000918716] |  |  |  |  | 111.04 ± 7.77% | 5.74 | 5.74 |  | 0.43 |  |  | Hill Slope (parental HEK cells; HEK Agonist Activity): 0.85; Lipophilic Efficiency (logD) (parental HEK cells; HEK Agonist Activity): 2.34; Lipophilic Efficiency (logP) (parental HEK cells; HEK Agonist Activity): 2.34; Averaged Max % Response (±St. Dev.) (parental HEK cells; HEK Agonist Activity): 92.04 ± 16.23%; pEC50 (parental HEK cells; [5]): 5.26
COc1ccc(C2(C)NC(=O)N(CC(=O)NC3CCCC3)C2=O)cc1 (stereo not drawn) [SR-01000918718] |  |  |  |  | 106.93 ± 8.46% | 6.47 | 6.47 | 0.93 | 0.43 | 7.70 |  | Lipophilic Efficiency (logD) (parental HEK cells; HEK Agonist Activity): 3.62; Lipophilic Efficiency (logP) (parental HEK cells; HEK Agonist Activity): 3.62; Averaged Max % Response (±St. Dev.) (parental HEK cells; HEK Agonist Activity): 16.28 ± 3.44%; pEC50 (parental HEK cells; [5]): < 4.85
C=C1CC(C)(c2ccc(OC)cc2)C(=C)C1CC(=O)CC1CCCCC1 (stereo not drawn) [SR-01000918719] | 3.17 | 3.17 |  | 19.77 ± 4.52% | 94.25 ± 9.34% | 5.17 | 5.17 | 0.65 | 0.37 |  | < 4.85 | 
